{
  "source": "patent US20130217132A1",
  "about": "“METHODS, COMPOSITIONS AND USE FOR ENHANCING CHEMICAL TOLERANCE BY MICROORGANISMS” (priority 2009, published 2013)",
  "key": {"MG1655 E. coli strain": {"test_system": "MG1655 E. coli strain", "test": "Minimum inhibitory concentration (MIC) assay of furfural in MOPS minimal media", "type": "cell-based", "details": "Escherichia coli", "experimental": "In one exemplary method, assays were performed to determine minimum inhibitory concentration (MIC) of ethanol, furfural and acetate for BW25113 and MG1655 E. coli strains. […] Cells from each strain were inoculated from the same optical density into a total of 100 μL of varying furfural concentrations in a minimal media, for example using MOPS. Cell growth in the first 24 hr or 48 hr in the presence of furfural was monitored. The left bar in each pair for each indicated strain represents a first concentration of furfural that inhibited bacterial growth after 24 hr. The right bar for each strain represents the first concentration that inhibited growth after 48 hr. The MIC reads were the average of triplicates (n=3), and error bars represent standard deviation. […] ArecA signifies strains where the gene has been knocked out as previously described.\nThe minimum inhibitory concentration (MIC) of furfural of MG1655 and BW25113 with or without lpcA overexpression was determined. MIC assays were performed as described in Example 13. […] MIC reads were average of triplicates (n=3), and error bars represent standard deviation. The SDS-PAGE gel image in FIG. 17C represents LPS level of the cells indicated above the gel image (duplicate of each cell sample was presented). LPS was extracted from the indicated cells grown to exponential phase. Loading of LPS the SDS-PAGE gel was normalized to the cell number. The gel was stained for visualization after desired separation of LPS was obtained."}, "[1]": {"test_system": "BW25113 araC::FRT-kan clone with overexpression of lpcA gene", "test": "Cell growth (OD600) in MOPS minimal media with furfural, araC deletion plus lpcA overexpression", "type": "cell-based, E. coli", "details": "furfural 1 g/L, araC deletion and lpcA overexpression", "experimental": "(§1) In other exemplary methods, tolerance and expression of LPS was restored in a microorganism. FIG. 19 represents an example of restoration of tolerance and LPS expression in BW25113 ArecA clone. The indicated cells were grown in MOPS minimal media supplemented with glucose as a carbon source. Furfural was added to the media at the concentration of 1 g/L. Arabinose was added at 10 mM where indicated to gauge effect of AraC binding. The BW25113 araC::FRT-kan clone corresponds to JW0063, a BW25113 araC knockout mutant ordered from the Keio Collection directly. pBTL-1 represented the blank vector, and pLPCA referred to lpcA gene overexpression. Consistent with the Examples above, overexpression of lpcA gene increased cell growth (OD600 of 0.1 vs. 0.05) in the presence of furfural. Addition of Arabinose to the lpcA gene overexpression cells could further enhance the effect (OD600 of 0.3). […] To analyze the LPS level in the cells indicated in FIG. 19, LPS are extracted from the cells grown to exponential phase. Loading of LPS for the protein gel is normalized to the cell number. The gel is stained to visualize LPS protein bands after desired separation is obtained.\n(§2) BW25113, MG1655, and derivatives were used where indicated. JW0063, an araC mutant of BW25113 was obtained from the Coli Genetic Stock Center (Yale). Overnight bacterial cultures were grown in Luria-Bertani medium with shaking. […]"}, "[2]": {"test_system": "BW25113 ArecA cells transformed with the blank pBTL-1 vector", "type": "cell-based, E. coli", "experimental": "FIGS. 17A-17B represent methods of identification of a gene related to restoring tolerance. Multiple genome-wide SCALE selection was performed in the presence of ethanol, furfural and acetate respectively. The data set obtained for each compound was compared to the others. Alleles enriched in all cases were identified. […] To restore tolerance, overexpression of identified genes in bacterial cells was performed. For example, lpcA ORF was cloned into the pBTL-1 vector. BW25113 ArecA cells transformed with the blank pBTL-1 vector were used as a control. BW25113 ArecA cells overexpressing lpcA gene were referred to as pLPCA. Cells were inoculated at a standard cell density into MOPS minimal media, supplemented with furfural, acetate or ethanol. After 24 hours, growth of the cells was analyzed.\nThe indicated cells were grown in MOPS minimal media supplemented with glucose as a carbon source. Furfural was added to the media at the concentration of 1 g/L. Arabinose was added at 10 mM where indicated to gauge effect of AraC binding. The BW25113 araC::FRT-kan clone corresponds to JW0063, a BW25113 araC knockout mutant ordered from the Keio Collection directly. pBTL-1 represented the blank vector, and pLPCA referred to lpcA gene overexpression. […] To analyze the LPS level in the cells indicated in FIG. 19, LPS are extracted from the cells grown to exponential phase. Loading of LPS for the protein gel is normalized to the cell number. The gel is stained to visualize LPS protein bands after desired separation is obtained.\nBW25113, MG1655, and derivatives were used where indicated. JW0063, an araC mutant of BW25113 was obtained from the Coli Genetic Stock Center (Yale). Overnight bacterial cultures were grown in Luria-Bertani medium with shaking. MOPS minimal medium (previously presented) with 0.2% glucose as a carbon source, was used for all seed cultures and growth studies. Seed cultures were inoculated at 2 v/v % from an overnight culture and were grown to mid-exponential phase. Growth cultures were inoculated with 10 v/v % seed cultures of an OD600 of 0.195-0.200 for an initial optical density of ˜0.02. Carbenicillin and kanamycin were used where appropriate at 100 μg/ml and 30 μg/ml, respectively. The pBTL-1 vector (previously described) was used as the control blank vector for all growth studies. Genome-wide furfural selection"}, "E. coli LYO1": {"test_system": "E. coli LYO1", "details": "cited from earlier work"}, "[3]": {"test_system": "BW25113 araC::FRT-kan clone (JW0063)", "test": "Cell growth (OD600) in MOPS minimal media with furfural, araC knockout", "type": "cell-based, E. coli", "details": "furfural 1 g/L", "experimental": "as §1, §2"}, "[4]": {"details": "furfural vs. furfuryl alcohol; cited from earlier work"}, "pBTL-1 lpcA culture": {"test_system": "pBTL-1 lpcA culture", "type": "cell-based, E. coli", "details": "aerobic growth in 1 g/L furfural", "experimental": "Certain experiments described herein were performed in E. coli BW25113 recA-, with the kanamycin resistance gene removed.\nCultures were grown in 10 ml MOPS minimal media, 100 μg carbenicillin/ml, and either 1 g furfural/1 supplemented, 2 g HMF/1, or 4 g acetate/1, in 15 ml conical tubes at 37° C. The optical density of 1 ml culture was measured with a spectrophotometer at 600 nm. A natural log transformation of the data was then calculated and then a regression line was fit to the data to calculate specific growth, which is […] to the culture doubling time. The blank vector, pBTL-1, served as the control. The lpcA gene was cloned into the pBTL-1 using standard cloning techniques and primers designed to amplify the gene from template DNA."}},
  "note": "Where two headings read alike, the source gives them in different places.",
  "data": [
    {"compound": "O=Cc1ccco1", "note": "[furfural, furan-2-carbaldehyde]", "values": [
      {"measurement": "MIC", "setting": "MG1655 E. coli strain; MG1655, read-out: MIC of furfural", "value": 1250, "unit": "µg/mL"},
      {"measurement": "MIC", "setting": "MG1655 E. coli strain; MG1655, after 24 hr, n=3, read-out: MIC (first concentration of furfural that inhibited bacterial growth)", "value": 1200, "unit": "µg/mL"},
      {"measurement": "MIC", "setting": "MG1655 E. coli strain; MG1655, after 48 hr, n=3, read-out: MIC (first concentration of furfural that inhibited bacterial growth)", "value": 1800, "unit": "µg/mL"},
      {"measurement": "OD600 (cell growth in the presence of furfural)", "setting": "[1]; absence of Arabinose", "value": 0.5},
      {"measurement": "OD600 (cell growth in the presence of furfural)", "setting": "[1]; presence of Arabinose", "value": 1.0},
      {"measurement": "OD600 at 24 hr", "setting": "[2]; control cells, 1 g/L of furfural", "value": "about 0.2"},
      {"measurement": "OD600 (cell growth in the presence of furfural)", "setting": "[2]; furfural 1 g/L, blank vector pBTL-1, no Arabinose, FIG. 19", "value": 0.05},
      {"measurement": "ethanol production", "setting": "E. coli LYO1", "value": "inhibited"},
      {"measurement": "OD600 (cell growth in the presence of furfural)", "setting": "[3]; araC::FRT-kan without lpcA overexpression, no Arabinose", "value": 0.5},
      {"measurement": "OD600 (cell growth in the presence of furfural)", "setting": "[3]; araC::FRT-kan, Arabinose 10 mM", "value": 1.0},
      {"measurement": "toxicity on a concentration basis", "setting": "[4]", "value": "~2", "unit": "g/L"},
      {"measurement": "Final OD600 (24 hr)", "setting": "pBTL-1 lpcA culture", "value": 0.918},
      {"measurement": "Specific Growth", "setting": "pBTL-1 lpcA culture; n=3", "value": 0.153, "unit": "h⁻¹"}
    ]}
  ]
}
